Reference: publication PMC6370995, “Phase I study of PF‐04895162, a Kv7 channel opener, reveals unexpected hepatotoxicity in healthy subjects, but not rats or monkeys: clinical evidence of disrupted bile acid homeostasis” (Pharmacology Research & Perspectives, 2019)
Read-outs that look alike come from different tables or passages of the source.

Key:
[1] = test system: healthy subjects; conditions: cited from earlier work; for subjects with mild/moderate transaminase elevations: ref Pfizer data on file
[2] = test system: cynomolgus monkeys; assay: 28-day Nasogastric Intubation Toxicity Study in Cynomolgus Monkeys; assay type: in vivo, cynomolgus monkey
Description: A 28-day nasogastric toxicity study was conducted in cynomolgus monkeys at up to 100 mg/kg/day and a 9-month oral toxicity study with a 3-month interim sacrifice was conducted in cynomolgus monkeys at up to 100 mg/kg/day.

[3] = Phase 1 clinical study in healthy subjects: plasma pharmacokinetics and food effect; assay type: in vivo, human
Description: A randomized, double‐blind, third‐party open (i.e., subject and Investigator blind, and Sponsor open), placebo‐controlled study was conducted in healthy subjects to investigate the safety, tolerability, and pharmacokinetics of single and multiple oral doses of PF‐04895162 and to characterize the effect of food on the pharmacokinetics of a single oral dose of PF‐04895162. The study was conducted in accordance with the International Conference on Harmonization guideline for Good Clinical Practice and the principles of the Declaration of Helsinki and was approved by the local independent ethics committee. All subjects gave written informed consent prior to participation in the study. The study was planned as a parallel group, dose escalation study in four cohorts of 10 subjects each, however, the study was terminated prematurely and only Cohort 1 was conducted. After an initial screening visit to confirm eligibility, subjects in Cohort 1 (Figure 1) received single oral doses of 300 mg PF‐04895162 in Period 1 (under fasting conditions) and Period 2 (under fed conditions), and then 300 mg BID PF‐04895162 or placebo for 14 days (under fasting conditions) in Period 3 (the final dose was administered on the morning of Day 14). In Period 2, subjects were given a high‐fat breakfast 25 minutes prior to dosing which had to be consumed within 20 minutes. In all periods, subjects were fasted for at least 8 hours prior to morning dosing (except for breakfast in Period 2), and received lunch and dinner approximately 4 and 9‐10 hours after the morning dose, respectively. In Period 3, subjects were randomized so that eight subjects received PF‐04895162 and two subjects received placebo. The single doses in Periods 1 and 2, and the first dose in Period 3 were each separated by 3 days. A follow‐up visit was conducted 7‐14 days after the final dose. The ClinicalTrials.gov identifier was NCT01691274.
Safety was assessed throughout the study by monitoring adverse events, vital signs (blood pressure, pulse rate, and body temperature), 12‐lead ECGs, and physical examinations. Blood samples for safety laboratory assessments were collected prior to and 24 hours after the first single dose of PF‐04895162 (Day 1 and 2 of Period 1), and in Period 3 on Days 7, 14, and 21 (additional samples were also collected in response to emerging safety data). The Columbia suicide severity rating scale (C‐SSRS) was also conducted at screening or baseline and at the follow‐up visit. Blood samples for pharmacokinetic profiles of PF‐04895162 were collected from predose to 72 hours after each single dose (Periods 1 and 2), and up to 12 and 48 hours after morning dosing on Days 7 and 14, respectively, in Period 3. Additional trough samples were also collected on Days 5, 6, 12, and 13 of Period 3.
The sample size of 10 subjects per cohort was chosen based on practical considerations and was considered sufficient to provide adequate safety information at each dose level. To assess the effect of food on the pharmacokinetics of PF‐04895162, natural log transformed area under the plasma concentration‐time curve (AUC) from time 0 to the last measured time point (AUClast), AUC from time 0 extrapolated to infinity (AUCinf) and maximum plasma concentration (Cmax) were analyzed using a mixed effects model with treatment (fed or fasted) as a fixed effect and subject as a random effect. Estimates of the adjusted mean differences (Fed ‐ Fasted) and corresponding 90% confidence intervals (CIs) were obtained from the model. The adjusted mean differences and 90% CIs for the differences were exponentiated to provide estimates of the ratio of adjusted geometric means (Fed/Fasted) and 90% CIs for the ratios. No formal hypothesis testing was conducted.

[4] = THLE 72 hour cytotoxicity assay based on ATP depletion; assay type: cell-based; conditions: human, THLE cells, after 72 hours
Description: […]

[5] = 300 mg single dose, high-fat breakfast vs fasted

## O=C(Cc1ccc(F)cc1)Nn1c(C2CC2)nc2cc(F)ccc2c1=O [PF‐04895162, N‐(2‐cyclopropyl‐7‐fluoro‐4‐oxoquinazolin‐3(4H)‐yl)‐2‐(4‐fluorophenyl)ethanamide]
[1]; 250 mg BID for 7 days
  subjects with mild/moderate transaminase elevations: one of 12 subjects
[1]; 300 mg BID for 7 days
  subjects with mild/moderate transaminase elevations: one of 12 subjects
[1]; multiple doses up to 200 mg BID for 7 days
  liver injury in healthy subjects: No evidence of liver injury
[1]; single dose studies up to 600 mg
  liver injury in healthy subjects: No evidence of liver injury
[2]; 30 mg/kg/day, females
  vomitus, incidence: 1/5
[2]; 30 mg/kg/day, males
  vomitus, incidence: 1/5
[2]; 100 mg/kg/day, 28 days
  parent AUC24 at the end of the study: mild autoinduction of metabolism
[2]; 100 mg/kg/day, females
  ataxia, incidence: 2/5
  body tremors, incidence: 3/5
  dilated pupils, incidence: 4/5
  hunched posture, incidence: 3/5
  squinting, incidence: 1/5
  vomitus, incidence: 2/5
[2]; 100 mg/kg/day, males
  ataxia, incidence: 2/5
  body tremors, incidence: 4/5
  dilated pupils, incidence: 4/5
  hunched posture, incidence: 3/5
  hypoactivity, incidence: 2/5
  vomitus, incidence: 1/5
[2]; 3, 10, 30, 100 mg/kg/day, 28 days
  survival: All animals survived to their scheduled termination
[2]; 30 and 100 mg/kg/day, 1, 2, and/or 4 hours post-dose, first day of treatment
  mean body (rectal) temperatures: larger decreases in mean body (rectal) temperatures
[2]; 28 days, up to 100 mg/kg/day
  hematology, coagulation, clinical chemistry, macroscopic and microscopic pathology: No effect of treatment
[3]; [5]
  AUCinf, Ratio (90% Confidence Interval) of Adjusted Means, Fed vs Fasted: 113.27 (102.99, 124.58) %
  AUClast, Ratio (90% Confidence Interval) of Adjusted Means, Fed vs Fasted: 116.85 (106.90, 127.73) %
  Cmax, Ratio (90% Confidence Interval) of Adjusted Means, Fed vs Fasted: 202.92 (178.28, 230.95) %
[3]; human, plasma, oral, 300 mg, 300 mg BID, Day 7, subject with the highest ALT values, read-out: AUCtau, Subject 8
  AUC: 93000 ng·h/mL
[3]; human, plasma, oral, 300 mg, 300 mg BID, Day 7, subject with the highest ALT values, read-out: Cmax, Subject 8 (converted)
  Cmax: 10800 ng/mL
[3]; human, plasma, oral, 300 mg, Period 1, 300 mg fasted, Day 1 (N = 10), 12 h interval, geometric mean (%CV), read-out: AUCtau
  AUC: 40800 ng·h/mL
[3]; human, plasma, oral, 300 mg, Period 1, 300 mg fasted, Day 1 (N = 10), arithmetic mean ± SD, read-out: t½, terminal half-life (converted)
  half-life: 7.88 ± 3.2 h
[3]; human, plasma, oral, 300 mg, Period 1, 300 mg fasted, Day 1 (N = 10), geometric mean (%CV), read-out: Cmax
  Cmax: 4510 ng/mL
[3]; human, plasma, oral, 300 mg, Period 1, 300 mg fasted, Day 1 (N = 10), median (range)
  Tmax: 5 h
[3]; human, plasma, oral, 300 mg, Period 1, 300 mg fasted, Day 1 (N = 10), total concentration, read-out: Cmax
  Cmax: 12.7 µM
[3]; human, plasma, oral, 300 mg, Period 2, 300 mg fed, Day 1 (N = 10), arithmetic mean ± SD, read-out: t½, terminal half-life (converted)
  half-life: 5.21 ± 1.17 h
[3]; human, plasma, oral, 300 mg, Period 2, 300 mg fed, Day 1 (N = 10), geometric mean (%CV), read-out: Cmax
  Cmax: 9150 ng/mL
[3]; human, plasma, oral, 300 mg, Period 2, 300 mg fed, Day 1 (N = 10), median (range)
  Tmax: 4 h
[3]; human, plasma, oral, 300 mg, Period 2, 300 mg fed, Day 1 (N = 10), total concentration, read-out: Cmax
  Cmax: 25.8 µM
[3]; human, plasma, oral, 300 mg, Period 3, 300 mg BID fasted, Day 7 (N = 7), geometric mean (%CV)
  Cmax at 7 day: 9430 ng/mL
[3]; human, plasma, oral, 300 mg, Period 3, 300 mg BID fasted, Day 7 (N = 7), geometric mean (%CV), read-out: AUCtau
  AUC: 85200 ng·h/mL
[3]; human, plasma, oral, 300 mg, Period 3, 300 mg BID fasted, Day 7 (N = 7), median (range)
  Tmax at 7 day: 2 h
[3]; human, plasma, oral, 300 mg, Period 3, 300 mg BID fasted, Day 7 (N = 7), total concentration
  Cmax at 7 day: 26.5 µM
[3]; human, plasma, oral, 300 mg, Period 3, 300 mg BID fasted, Day 14 (N = 7), arithmetic mean ± SD, read-out: t½, terminal half-life (converted)
  half-life at 14 day: 8.04 ± 3.29 h
[3]; human, plasma, oral, 300 mg, Period 3, 300 mg BID fasted, Day 14 (N = 7), geometric mean (%CV)
  Cmax at 14 day: 8380 ng/mL
[3]; human, plasma, oral, 300 mg, Period 3, 300 mg BID fasted, Day 14 (N = 7), geometric mean (%CV), read-out: AUCtau
  AUC: 71200 ng·h/mL
[3]; human, plasma, oral, 300 mg, Period 3, 300 mg BID fasted, Day 14 (N = 7), median (range)
  Tmax at 14 day: 2 h
[3]; human, plasma, oral, 300 mg, Period 3, 300 mg BID fasted, Day 14 (N = 7), total concentration
  Cmax at 14 day: 23.6 µM
[3]; human, plasma, oral, 300 mg, similar after single and multiple dosing, 300 mg, read-out: Mean terminal half-life (converted)
  half-life: ~8 h
[4]
  IC50 at 72 h: ~192 µM
